Where two headings read alike, the source gives them in different places.
Tests used:
[1] = Non-specific binding to ultrafiltration device in PBS
[2] = External ear dosing of 3% moxigel after 10% or 50% IPM pretreatment, MEF microdialysis; conditions: 3% moxigel 9 mg external ear, mean
[3] = cited from earlier work
[4] = in vitro; assay type: in vitro ADME; conditions: bovine, pH 7.4
Text: The volume of serous middle ear fluid (MEF) that accumulates in non-infected chinchillas with Eustachian tube obstruction varies greatly. […] It became necessary to formulate an artificial middle ear fluid (AMEF) that mimics the MEF.

[5] = in vitro

fraction unbound [1]: ~1
fraction unbound at 220 μg/ml [1]: 0.97 ± 0.026
Time to reach 10 μg/mL [2]: 618 min
fraction unbound at 220 μg/ml ([4]; isolated protein): 0.84 ± 0.063
fraction unbound at 492 μg/ml ([4]; isolated protein): 0.92 ± 0.013
fraction unbound [4]: 0.84 to 0.92
elimination rate constant (high intrabulla dose (150 μg)): 0.0075 ± 0.0010 min⁻¹
elimination rate constant (intrabulla dosing, mean of both doses): 0.0093 min⁻¹
elimination rate constant (low intrabulla dose (50 μg)): 0.0102 ± 0.0040 min⁻¹
fraction unbound at 492 μg/ml [5]: 0.75 ± 0.02
Structure (SMILES): COc1c(N2C[C@@H]3CCCN[C@@H]3C2)c(F)cc2c(=O)c(C(=O)O)cn(C3CC3)c12 [moxifloxacin]
mean AUC ([3]; human, in vivo, po, 400 mg): 2170 µg·min/mL
concentration observed in plasma ([3]; humans, oral dose of 400 mg, Owens & Ambrose 2002): 2000 ng/mL
total (bound plus free) maximum concentration in plasma ([3]; humans, oral dose of 400 mg): 3.1 µg/mL
